Where a name gives a salt, the structure may show the parent alone.
Experiments:
[1] = target: T1, dopamine receptors (^3 H-NPA binding sites) (Rattus norvegicus, UniProt P61169); experiment: In vitro inhibition of ^3 H-NPA binding to rat striatal homogenate; conditions: for reversal of inhibition of ^3 H-NPA binding by washing of membranes: FIG. 8
[2] = target: T1, dopamine receptors (^3 H-NPA binding sites)
[3] = test system: dopamine receptors; experiment: Apomorphine-induced climbing in mice (climbing index); format: in vivo; conditions: for effect on apomorphine climbing: 10 mg/kg s.c.; for effect on apomorphine climbing index: apomorphine 1.0 mg/kg s.c.
Procedure: Climbing behavior was measured by placing mice in individual cages (20×15×15 cm) lined with wire mesh. A "climbing index", i.e., the percentage of time spent climbing during the 30-minute period following the first climb, was determined.

[4] = target: T2, dopamine-sensitive adenylate cyclase (Rattus norvegicus, UniProt P18901); experiment: Inhibition of activation of dopamine-sensitive adenylate cyclase in rat striatal homogenates; format: biochemical
Procedure: Washed tissue, including one specimen without NCA as a control, was then incubated with zero or 50 μM of dopamine in the presence of an excess of adenosine triphosphate for 2.5 minutes at 37° and the level of cyclic adenosine monophosphate in the incubation mixture with and without dopamine was assayed by a protein binding method. The increase in cyclic adenosine monophosphate levels due to the dopamine was estimated for all conditions.

[5] = test system: dopamine receptors; experiment: Circling/asymmetry in rats after unilateral intrastriatal injection and apomorphine challenge; format: in vivo, rat
Procedure: A further behavioral model utilized rats (male, Sprague-Dawley, 300±25 g). […] Bilateral guide cannulae were chronically implanted in the rats, using standard stereotaxic techniques, to allow drug/vehicle injection at the center of the caudate-putamen complex (Ant. 8.0, Lat. +3.0, Vert. +1.5, De Groot, 1959). Fourteen days after cannulation, the animals were manually restrained and the drug in a solvent vehicle was injected in a volume of 4 μliters (1 μliter/min) into the right and left striata, respectively. The 4 μliter contained dosages of 10 μg or 40 μg of the drug.
The resting asymmetry was particularly evident when the animals were disturbed and was also noted two and five days after the injection of the (-)N-(2-chloroethyl)norapomorphine. By the seventh day the ipsilateral asymmetry was variable and was not apparent by the fourteenth day.
Again, as in the circling experiments with the mice, it was apparent that the dopamine inhibitory actions of the drug endured for 2 to 4 days. The recovery of the behavioral response possibly reflects the resynthesis of dopamine receptors.

[6] = test system: dopamine receptors; experiment: Apomorphine-induced stereotypy; format: in vivo; conditions: 10 mg/kg pretreatment; apomorphine 1 mg/kg
Excerpt: Apomorphine-induced behavioral characteristics in the rodent are considered to involve dopamine agonist action on striatal and mesolimbic dopamine receptors. […] Among such induced behavioral characteristics are circling, climbing and stereotypy.

[7] = test system: striatal dopamine receptors; experiment: Apomorphine-induced circling in unilateral striatectomized mice; format: in vivo
Procedure: Among such induced behavioral characteristics are circling, climbing and stereotypy.
Male albino mice in the weight range of 35-40 grams were used in the determination of circling behavior. The mice were prepared for circling experiments using standard stereotaxic techniques to place unilateral electrolesions in the right caudate-putamen (1.0 mm anterior to bregma, 2.0 mm lateral and 3.5 mm below the skull surface, 1.5 mA/15 s). […] Those mice circling less than 6 revolutions every 2 minutes were excluded from subsequent studies.

[8] = target: T2, dopamine-sensitive adenylate cyclase; conditions: Walton et al., Eur. J. Pharmacol. 52: 231 (1978); cited from earlier work

T1 sequence (P61169 whole entry): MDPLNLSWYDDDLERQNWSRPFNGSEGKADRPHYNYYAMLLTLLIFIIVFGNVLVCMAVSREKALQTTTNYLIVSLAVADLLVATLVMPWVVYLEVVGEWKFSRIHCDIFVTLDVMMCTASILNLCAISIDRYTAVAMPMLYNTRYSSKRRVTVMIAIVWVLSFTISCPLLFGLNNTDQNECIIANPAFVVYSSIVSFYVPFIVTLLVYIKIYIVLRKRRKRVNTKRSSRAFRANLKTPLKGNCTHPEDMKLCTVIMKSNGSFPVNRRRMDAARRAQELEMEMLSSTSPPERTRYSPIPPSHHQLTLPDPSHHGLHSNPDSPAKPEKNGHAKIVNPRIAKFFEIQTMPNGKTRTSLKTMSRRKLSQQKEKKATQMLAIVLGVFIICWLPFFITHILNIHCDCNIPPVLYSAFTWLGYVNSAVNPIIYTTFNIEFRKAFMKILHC
T2 sequence (P18901 whole entry): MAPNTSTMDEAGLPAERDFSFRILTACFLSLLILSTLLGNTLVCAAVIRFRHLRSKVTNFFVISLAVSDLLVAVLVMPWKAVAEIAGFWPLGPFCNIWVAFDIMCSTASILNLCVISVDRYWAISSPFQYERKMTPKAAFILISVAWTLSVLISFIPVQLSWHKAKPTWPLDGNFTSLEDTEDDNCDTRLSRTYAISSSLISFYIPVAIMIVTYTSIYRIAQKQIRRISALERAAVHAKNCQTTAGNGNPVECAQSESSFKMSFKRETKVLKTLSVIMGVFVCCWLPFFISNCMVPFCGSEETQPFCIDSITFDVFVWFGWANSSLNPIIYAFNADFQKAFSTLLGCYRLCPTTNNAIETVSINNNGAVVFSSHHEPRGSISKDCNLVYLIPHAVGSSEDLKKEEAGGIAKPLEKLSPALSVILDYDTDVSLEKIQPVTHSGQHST
T2 sequence (Q04400 whole entry partner): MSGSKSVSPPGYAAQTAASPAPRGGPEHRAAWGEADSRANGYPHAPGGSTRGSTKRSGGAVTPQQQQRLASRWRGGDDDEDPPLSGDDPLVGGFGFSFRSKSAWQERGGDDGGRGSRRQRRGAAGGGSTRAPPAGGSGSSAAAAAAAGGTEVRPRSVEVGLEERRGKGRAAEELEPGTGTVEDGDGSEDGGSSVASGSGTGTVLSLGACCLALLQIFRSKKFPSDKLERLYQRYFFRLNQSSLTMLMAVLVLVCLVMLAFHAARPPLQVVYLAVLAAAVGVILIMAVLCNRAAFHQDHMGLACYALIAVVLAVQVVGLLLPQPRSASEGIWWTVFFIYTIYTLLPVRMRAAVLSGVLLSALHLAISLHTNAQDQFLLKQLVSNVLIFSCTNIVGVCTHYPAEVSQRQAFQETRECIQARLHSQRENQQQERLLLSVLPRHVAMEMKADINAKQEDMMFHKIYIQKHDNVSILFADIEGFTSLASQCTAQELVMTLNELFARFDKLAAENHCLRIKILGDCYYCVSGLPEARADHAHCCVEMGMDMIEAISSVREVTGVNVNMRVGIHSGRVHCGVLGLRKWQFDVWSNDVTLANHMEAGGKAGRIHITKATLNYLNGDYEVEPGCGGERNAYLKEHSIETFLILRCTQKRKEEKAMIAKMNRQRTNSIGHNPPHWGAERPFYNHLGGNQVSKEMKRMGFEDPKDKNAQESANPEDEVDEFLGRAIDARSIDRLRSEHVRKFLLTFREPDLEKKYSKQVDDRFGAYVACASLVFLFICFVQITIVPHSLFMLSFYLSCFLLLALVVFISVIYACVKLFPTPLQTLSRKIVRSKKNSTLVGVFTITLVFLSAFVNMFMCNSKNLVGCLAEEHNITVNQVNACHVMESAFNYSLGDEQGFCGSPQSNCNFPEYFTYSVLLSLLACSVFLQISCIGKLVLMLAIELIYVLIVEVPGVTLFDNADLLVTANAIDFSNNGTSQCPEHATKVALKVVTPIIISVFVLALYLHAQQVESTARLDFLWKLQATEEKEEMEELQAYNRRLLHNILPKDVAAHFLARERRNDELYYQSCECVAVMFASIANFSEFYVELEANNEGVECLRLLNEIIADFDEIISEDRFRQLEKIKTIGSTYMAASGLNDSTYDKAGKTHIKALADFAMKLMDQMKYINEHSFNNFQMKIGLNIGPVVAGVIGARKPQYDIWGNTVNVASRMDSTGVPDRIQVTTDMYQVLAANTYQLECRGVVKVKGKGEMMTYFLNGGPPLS

In the case of CCCN1CCc2cccc3c2C1Cc1ccc(O)c(O)c1-3 (single isomer, unassigned) [^3 H-NPA, ^3 H-N-n-propylnorapomorphine, reference compound], the Bmax [1] is reported as 190 fmol/mg protein and the “density of ^3 H-NPA binding sites” value [2] is reported as “approximately 180 fmol/mg protein”.
For COc1ccc2c(c1OC(C)=O)-c1cc(O)cc3c1C(C2)N(C(=O)CN(CCCl)CCCl)CC3 (centres unmarked) [6-[2-bis(2-chloroethyl)amino]acetyl-11-acetoxy-2-hydroxy-10-methoxy-apoporphine hemihydrate, reference compound], the “effect on apomorphine climbing” value ([3]; four-hour pretreatment) was “failed to modify apomorphine climbing”.
In the case of COc1ccc2c(c1O)-c1cccc3c1[C@@H](C2)N(CCCl)CC3 [(-)N-(2-chloroethyl)norapocodiene.HCl, reference compound], the “effect on apomorphine climbing” value ([3]; four-hour pretreatment) is reported as “failed to modify apomorphine climbing”.
With OCCN1CCc2cccc3c2[C@H]1Cc1ccc(O)c(O)c1-3 [(-)N-(2-hydroxyethyl)norapomorphine.HCl] the “reversal of inhibition of ^3 H-NPA binding by washing of membranes” value ([1]; 5×10^-7 M) was “reversed” and the “effect on apomorphine climbing” value ([3]; 90-minute pretreatment) was “failed to modify apomorphine climbing”.
In the case of Oc1ccc2c(c1O)-c1cccc3c1[C@@H](C2)N(CCCl)CC3 [NCA], the IC50 [1] is reported as 1800 nM, the “reversal of inhibition of ^3 H-NPA binding by washing of membranes” value ([1]; 5×10^-6 M) is reported as “not reversed” and the “reversal of prevention of ^3 H-NPA binding by washing” value ([1]; NCA 10^-5 M, repeated washing) is reported as “not reversed by repeated washing”. The “inhibition of ^3 H-NPA binding in the presence of blocking agents” value ([1]; high concentrations of phentolamine and propranolol, NCA 3×10^-5 M) was “also apparent”, the percent dopamine stimulation of cAMP production at 10 µM ([4]; 10 min, NCA 10 μM, 10 min 37° C. preincubation, washed, 50 μM dopamine) was 84% and the percent dopamine stimulation of cAMP production at 30 µM ([4]; 10 min, NCA 30 μM, 10 min 37° C. preincubation, washed, 50 μM dopamine) was 44%. It also gave a percent dopamine stimulation of cAMP production at 75 µM ([4]; 10 min, NCA 75 μM, 10 min 37° C. preincubation, washed, 50 μM dopamine) of 8%, an inhibition at 10 µM ([4]; NCA 10 μM) of 16% and an inhibition at 30 µM ([4]; NCA 30 μM) of 56%. The inhibition at 75 µM ([4]; NCA 75 μM) was 92%, the “reduction of number of ^3 H-NPA binding sites” value ([2]; 40 μg NCA intrastriatal, day 2) was “approximately 50%” and the “number of sites available for ^3 H-NPA binding” value ([2]; 40 μg NCA intrastriatal, days 7 and 14) was “returned to control values”. The “circling on apomorphine challenge” value ([5]; 40 μg intrastriatal, apomorphine 0.5 mg/kg s.c., four hours and two days, to a lesser extent 5 days after administration) was “precipitated a clear circling behavior”, the “ipsilateral asymmetry/circling movements after unilateral injection into the caudate-putamen” value ([5]; 10 and 40 μg intrastriatal) was “induced ipsilateral asymmetry/circling movements within an hour” and the resting ipsilateral asymmetry ([5]; fourteenth day) was “not apparent”. The resting ipsilateral asymmetry ([5]; seventh day) was “variable”, the resting ipsilateral asymmetry ([5]; two and five days after injection) was “noted” and the “effect on submaximal stereotypic effect of apomorphine (repetitive sniffing, periodic biting, continuous biting)” value [6] was “failed to modify”. For the same compound, the “effect on apomorphine climbing index” value ([3]; 10 mg/kg i.p. pretreatment) was “reduced this index”, the “effect on apomorphine climbing index” value ([3]; 20 mg/kg i.p. pretreatment) was “greatly reduced” and the “duration of reduction of climbing index” value ([3]; after i.p. administration) was “up to between four and five days”. For the same compound, the “inhibition of apomorphine-induced circling” value ([7]; 1.0 mg/kg s.c., apomorphine 0.5 mg/kg s.c., 4 hours to 7 days after administration) was “essentially no inhibition”, the reduction in circling ([7]; higher dosage levels (2.0 or 4.0 mg/kg s.c.), after 2 days) was “still apparent” and the reduction in circling ([7]; highest dosage level (4.0 mg/kg s.c.), after 5 days) was 39%.
For CN1CCc2cccc3c2[C@H]1Cc1ccc(O)c(O)c1-3 [apomorphine], the circling behavior ([7]; 0.25-1 mg/kg apomorphine, dose-dependent) was 2-10 revolutions every 12 minutes.
In the case of CC(COc1ccccc1)N(CCCl)Cc1ccccc1 (centres unmarked) [phenoxybenzamine], the “action on dopamine-sensitive adenylate cyclase” value [8] is listed as “irreversible blocking action”.

Source: US4353912A, “N-Haloalkyl nor apomorphines and method of inactivating dopamine receptor sites and enhancing dopaminergic activity therewith” (Northeastern University, priority 1980, dated 1982)
